In brackets after ≈: the same amount, converted by molar mass.

One experiment concerns C. albicans strain CAI-4. Briefly: Viability assay in liquid YPD medium and colony formation on solid YPD. To be noted: concentrations of 200 y 2000 μg/ml. It is filed as cell-based, Candida albicans. How it is done: FIG. 1. Viability assay on liquid YPD medium (A) and colony formation on solid YPD medium (B) on C. albicans strain CAI-4 to different concentrations of carnosic acid, propolis 2 and 3. It started from a preinocolum culture incubated overnight at 28° C.; the next day refreshed in YPD medium to a D.O600 nm=0.3. The culture was allowed to grow to D.O600 nm=0.6 at 37° C., moment at which the compounds, object of the study, are added for one hour at the same temperature. Additionally, a positive control of antifungal activity with amphotericin B was included under the same conditions.
Assays were carried out in liquid YPD medium (1% yeast extract, 2% peptone and 2% glucose) at 37° C. Initially the C. albicans strain CAI-4 was used, but as it presented growth problems during the calculation of the MIC, it was replaced by its parental (SC5314, wild type), widely used in the laboratory. The procedure consisted of applying different concentrations of carnosic acid and propolis (one hour, unless other times are indicated) on exponential cultures of C. albicans grown in YPD. The percentage of cell viability was determined by counting the number of viable cells in the solid YPD medium after incubation at 37° C. for 24-48 hours (FIG. 1).

Experiment [1] has as its system C. albicans standard strain SC5314. Briefly: Viability assay in liquid medium and colony formation on solid YPD. As to conditions: various concentrations, exponential YPD liquid cultures. It counts as cell-based, Candida albicans. The text has this: FIG. 2. Viability assay in liquid medium of the C. albicans standard strain SC5314 to different concentrations of carnosic acid and propolis 1. As a positive control Amphotericin B was used. Due to the particular behaviour of the CAI-4 strain when carrying out MICs, it was decided to use the wild strain SC5314 ([…] parental), in order to validate the effect of the compounds of study on an international C. albicans reference strain. The assay followed the same procedure described in FIG. 1.
FIG. 3. Assay of macroscopic colony formation in solid YPD medium. The C. albicans standard strain SC5314 was used to the concentrations of carnosic acid and propolis 1 indicated. As a positive control Amphotericin B was used. For further details of methodology see FIG. 1.
Assays were carried out in liquid YPD medium (1% yeast extract, 2% peptone and 2% glucose) at 37° C. Initially the C. albicans strain CAI-4 was used, but as it presented growth problems during the calculation of the MIC, it was replaced by its parental (SC5314, wild type), widely used in the laboratory. […] The percentage of cell viability was determined by counting the number of viable cells in the solid YPD medium after incubation at 37° C. for 24-48 hours (FIG. 1). […]

In experiment [2] the test system is parental strain SC5314. Nature of the experiment: MIC determination. To be noted: Candida albicans. It counts as cell-based.
The next experiment relates to CAI-4. Briefly: MIC determination. It counts as cell-based. As to conditions: Candida albicans; strain CAI-4.
Experiment [3] concerns C. albicans yeast (blastoconides) CAI-4. Nature of the experiment: Cell morphology by optical microscopy (Nomarsky). It counts as cell-based, Candida albicans. How it is done:
FIG. 4. Inspection of the cell morphology by optical microscopy, using the interference contrast of “Nomarsky” on C. albicans yeast (blastoconides) CAI-4, treated with: propolis 3 (200 μg/ml), carnosic acid (100 μg/ml) and the combination of both compounds.
As an essential tool in understanding the effectiveness of these compounds on C. albicans cell viability, detailed studies on the effects of their administration on the cell morphology of this opportunistic pathogen, visualized by optical microscopy, were performed (FIGS. 4, 5 and 6).

In a further experiment the test system is SC5314 strain. Nature of the experiment: Cell morphology by optical microscopy. It is filed as cell-based, Candida albicans. The text has this:
FIG. 5. Optical micrographs (100×) where it can be seen how the treatment with increasing doses of carnosic acid caused visible alterations in the cellular morphology, resulting in cells with a more swollen and deformed aspect, with increased birefringence and the apparent loss of ability to transition dimorphically to mycelial structures (hyphae).
FIG. 6. Optical micrographs (40×) taken in order to provide better visual field with higher cell density, using the same cultures as in FIG. 5. The presence of swollen cells is very significant in the image, with a carnosic acid concentration of 100 μg/ml.

For experiment [4], the system named is parental strain SC5314. Briefly: Inhibition kinetics / synergy assay, liquid medium and colony formation on plate. It is filed as cell-based, Candida albicans. To be noted: carnosic acid 50 μg/ml, propolis 3 200 μg/ml. How it is done: FIG. 8. (A) Measurement of the kinetic growth in the parental strain SC5314. With regard to previous assays, the following modifications were used: (i) Reduction of the concentration of carnosic acid to 50 μg/ml, maintaining that of the propolis 3 (PP) at (200 μg/ml), in order to better monitor its effect on cell viability. […] (B) Assay of colony formation on plate.
Then, in strain SC5314, as it is a reference lineage, new experiments simultaneously measuring the kinetics of inhibition of cell viability at sub-inhibitory concentrations of the carnosic acid (up to 50 μg/ml) and propolis 3 (200 μg/ml) were conducted together with the synergy assays between the two. The tested aliquots come from a single initial exponential culture and, therefore, the physiological state of the cells is identical.

The subject of experiment [5] is C. albicans strain SC5314. Briefly: Yeast-hyphae dimorphic transition induced by human serum. To be noted: YPD plus human serum at 10%, 37° C., different concentrations. It counts as cell-based, Candida albicans. Here is the method:
FIG. 9. Effect of the addition of carnosic acid on the percentage of yeast-hyphae dimorphic transition in C. albicans induced by human serum at 37° C. Exponential cultures of strain SC5314 were centrifuged and resuspended in fresh YPD medium preheated at 37° C. Identical samples were treated with carnosic acid at the indicated concentrations, using an untreated sample and a sample maintained at 28° C. as controls. The percentage of germ tubes emission (first stage of the formation of hyphae) was calculated by direct microscopic count with a hemocytometer.
FIG. 10. Micrographs illustrating the effect of carnosic acid on the dimorphism of C. albicans. In the control assay with the lowest concentration of carnosic acid, a high percentage of filamentation (grouped hyphae forming a mycelium) which decreased proportionally with increasing dose of the latter, was observed.
These assays are also complemented with the evaluation of the influence on the morphology (dimorphism) of C. albicans. In FIGS. 9 and 10, the effect of the carnosic acid on the dimorphic transition of the strain SC5314 of C. albicans was explored, given that the yeast-mycelium dimorphic transition is considered to be a factor of virulence in this opportunistic pathogen. To do this, an “overnight” culture was […] to a low optical density (0.1) and left to grow to 0.3 at 37° C. […]

On to `CC(C)c1cc2c(c(O)c1O)[C@@]1(C(=O)O)CCCC(C)(C)[C@@H]1CC2` [carnosic acid], for which, in the experiment on C. albicans strain CAI-4, the antifungal effect entry is on record as “strong antifungal effect”. Moreover, the cell viability result in experiment [1] is “significant decrease in cell viability”. The MIC in the experiment on parental strain SC5314 [2] and against CAI-4 was 250 µg/mL (≈ 752 µM) throughout. Further, the “effect on cell morphology” value in experiment [3] (more significant after five hours of treatment) is listed as “apparent cellular reduction of size (volume)”. In experiment [3] (propolis 3 200 μg/ml, carnosic acid 100 μg/ml, and the combination), the “cell morphology (FIG. 4 legend)” value is recorded as “significant reduction in cell size”. Moreover, the cell morphology entry with SC5314 strain (100 μg/ml of carnosic acid, Nomarsky contrast) was “growing swelling”; in the experiment with SC5314 strain (increasing concentration of carnosic acid), “swelling and deformation of the yeast cells”. Also, the “cells seen in micrograph (40×)” value with SC5314 strain (500 μg/ml) is listed as “small number of cells”. Moreover, the “antifungal action considered individually” value with parental strain SC5314 [4] was “strong antifungal action”. For the same compound, in the experiment with parental strain SC5314 [4] (combination read at one hour), the “growth on plate (FIG. 8)” value is “growth is visible”. Moreover, the “filamentation (yeast-mycelium dimorphic transition)” value in experiment [5] is on record as “reduced the filamentation of C. albicans in a dose-dependent way”.

Source of the values: patent US10272120B2, “Synergistic composition comprising propolis and carnosic acid for use in the prevention and treatment of candidiasis” (priority 2015, dated 2019).
